One series has as its system HIV. Format: cell-based. Conditions: ratio CD50/ED50. As to the method: (§1) The anti-HIV assays were based on the inhibition of the virus-induced cytopathic effect in MT-4 cells as a described method in J. Med. Chem, 34, 357, 1991. Briefly, MT-4 cells were suspended in culture medium at 2.5×10^5 cells/ml and infected with 1000 CCID50 (50% cell culture infective dose) of HIV. Immediately, after virus infection, 100 μl of the cell suspension was brought into each well of a flat-bottomedmicrotitray containing various concentrations of the test compounds. After a 4 or 5 days incubation at 37° C., the number of viable cells was determined by the 3-(4,5-dimethylthiazol-2-yl)-2,5-diphenyltetrazolium bromide (MTT) method, as disclosed in J. Virol. Methods, 20, 309, 1988. The cytotoxicity of the compounds of the present invention was assessed in parallel with their antiviral activity. It was based on the viability of mock-infected host cells as determined by the MTT methods.

The next series has as its system MT-4 cells. Nature of the series: cytotoxicity: viability of mock-infected MT-4 host cells (MTT method). The series is classed as cell-based. Details: unit not given here. Conditions: mock-infected MT-4 cells. The procedure:
as §1

Where [1] appears, read: marker a (undefined, shared with AZT^a).
[2] abbreviates: marker b (undefined, shared with AZT^b).
Where [3] appears, read: marker c (undefined, shared with AZT^c).
The mark [4] stands for this setting: marker d (undefined, shared with AZT^d).
The mark [5] stands for this setting: marker e (undefined, shared with AZT^e).

In patent publication US5922727A, “Antiviral substituted pyrimidinedione homocarbocyclic nucleoside derivatives and methods for the preparation thereof and compositions containing the same as active ingredients” (Samjin Pharmaceutical Co., Ltd, priority 1996, dated 1999) one finds S.I. and CD50 data, which are given here for 12 compounds.

SMILES strings stand for the structures. Read-outs that look alike come from different tables or passages of the source.

`Cc1cn([C@H]2C[C@H](N=[N+]=[N-])[C@@H](CO)O2)c(=O)[nH]c1=O` [AZT, reference compound]: the S.I. in the series with HIV (setting [1]) is given as 5,825; with HIV (setting [2]), 1,123; with HIV (setting [3]), 83; in the series with HIV (setting [4]), 5,500; with HIV (setting [5]), 3,172; in the series with HIV (no run marker), 2,633. Also, the CD50 in the series on MT-4 cells (setting [1]) is 1.13; in the series with MT-4 cells (setting [2]), 0.73; in the series with MT-4 cells (setting [3]), 0.057; in the series on MT-4 cells (setting [4]), 2.75; with MT-4 cells (setting [5]), 1.84; in the series on MT-4 cells (no run marker) it was 1.58.

For the compound `CCc1c(Sc2cc(C)cc(C)c2)n(CC2CC=CC2)c(=O)[nH]c1=O` [Example 2, 1-[(Cyclopent-3-en-1-yl)methyl]-5-ethyl-6-(3,5-dimethylphenylthio)-2,4-pyrimidinedione], the S.I. in the series on HIV (no run marker) is reported as 60,930. Moreover, the CD50 in the series with MT-4 cells (no run marker) turned out to be 7.86.

As to `Cc1cc(C)cc(Sc2c(C(C)C)c(=O)[nH]c(=O)n2CC2CC=CC2)c1` [Example 4, 1-[(Cyclopent-3-en-1-yl)methyl]-5-isopropyl-6-(3,5-dimethylphenylthio) -2,4-pyrimidinedione], the S.I. in the series with HIV (setting [1]) is recorded as 2,111. The CD50 with MT-4 cells (setting [1]) turned out to be 11.40.

`CCc1c(Sc2cc(C)cc(C)c2)n(CC2=CCC(CO)C2)c(=O)[nH]c1=O` (centres unmarked) [Example 7, 1-[(4-Hydroxymethylcyclopent-1-en-1-yl)methyl]-5-ethyl-6-(3,5-dimethylphenylthio)-2,4-pyrimidinedione]: the S.I. in the series on HIV (no run marker) is listed as 3,004. Further, the CD50 in the series with MT-4 cells (no run marker) is on record as 7.69.

`Cc1cc(C)cc(Sc2c(C(C)C)c(=O)[nH]c(=O)n2CC2=CCC(CO)C2)c1` (centres unmarked) [Example 9, 1-[(4-Hydroxymethylcyclopent-1-en-1-yl)methyl]-5-isopropyl-6-(3,5-di-methylphenylthio)-2,4-pyrimidinedione]: the S.I. with HIV (no run marker) is 16,785. In the series on MT-4 cells (no run marker), this compound returned a CD50 of 8.51.

Take `CCc1c(Oc2cc(C)cc(C)c2)n(CC2CC=CC2)c(=O)[nH]c1=O` [Example 14, 1-[(Cyclopent-3-en-1-yl)methyl]-5-ethyl-6-(3,5-dimethylphenoxy)-2,4-pyrimidinedione]: the S.I. in the series on HIV (setting [2]) is reported as 400,238. In the series on MT-4 cells (setting [2]), this compound displayed a CD50 of 16.81.

In the case of `Cc1cc(C)cc(Oc2c(C(C)C)c(=O)[nH]c(=O)n2CC2CC=CC2)c1` [Example 15, 1-[(Cyclopent-3-en-1-yl)methyl]-5-isopropyl-6-(3,5-dimethylphenoxy)-2,4-pyrimidinedione], in the series on HIV (setting [1]), the S.I. is 1,624. For the same compound, the CD50 with MT-4 cells (setting [1]) was determined as 10.07.

Compound `CCc1c(C(=O)c2cc(C)cc(C)c2)n(CC2CC=CC2)c(=O)[nH]c1=O` [Example 16, 1-[(Cyclopent-3-en-1-yl)methyl]-5-ethyl-6-(3,5-dimethylbenzoyl)-2,4-pyrimidinedione] displayed a CD50 with MT-4 cells (setting [3]) of 1.52.

Consider `Cc1cc(C)cc(C(=O)c2c(C(C)C)c(=O)[nH]c(=O)n2CC2CC=CC2)c1` [Example 17, 1-[(Cyclopent-3-en-1-yl)methyl]-5-isopropyl-6-(3,5-dimethylbenzoyl)-2,4-pyrimidinedione], for which the S.I. in the series with HIV (setting [1]) was 3,615. The compound also gave a CD50 in the series with MT-4 cells (setting [1]) of 19.16.

On to `CCc1c(Oc2cc(C)cc(C)c2)n(CC2=CCC(CO)C2)c(=O)[nH]c1=O` (centres unmarked) [Example 18, 1-[(4-Hydroxymethylcyclopent-1-en-1-yl)methyl]-5-ethyl-6-(3,5-dimethyl-phenoxy)-2,4-pyrimidinedione], for which, in the series with HIV (no run marker), the S.I. is on record as 1,131. This compound registered a CD50 in the series on MT-4 cells (no run marker) of 12.78.

As for `CCc1c(Oc2cc(C)cc(C)c2)n(CC2=CCCC2CO)c(=O)[nH]c1=O` (centres unmarked) [Example 19, 1-[(5-Hydroxymethylcyclopent-1-en-1-yl)methyl]-5-ethyl-6-(3,5-dimethyphenoxy)-2,4-pyrimidinedione], the S.I. with HIV (no run marker) is 1,384. Moreover, the CD50 in the series on MT-4 cells (no run marker) stood at 55.37.

In the case of `Cc1cc(C)cc(C(=O)c2c(C(C)C)c(=O)[nH]c(=O)n2CC2CCCC2)c1` [Example 22, 1-(Cyclopentyl)methyl-5-isopropyl-6-(3,5-dimethylbenzoyl)-2,4-pyrimidinedione], the CD50 in the series with MT-4 cells (setting [2]) amounted to 9.97.
